The text below walks through data of patent US10052306B2 (LUC THERAPEUTICS, INC., priority 2013, dated 2018).

The assay addresses NR1/NR2B (Homo sapiens (Human), UniProt Q05586+Q13224). As to the kind of experiment: Cell assay: FDSS Ca2+ influx inhibition in HEK293 cells expressing NR1/NR2B.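 Note: Fluo-8 Ca2+ signal read on Hamamatsu FDSS 6000 after glutamate, glycine and Ca2+ challenge following 10 min compound preincubation, end/baseline fluorescence ratio compared with MK801 control.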 The conditions noted are these: Ca2+ influx.
[1] abbreviates: NR2B NAM IC50, HEK293 cells expressing NR1/NR2B.
Where [2] appears, read: Binned Activity, HEK293 cells expressing NR1/NR2B, binned NR2B NAM IC50.

Sequence of NR1/NR2B (Q13224 27-1484, other chains not shown): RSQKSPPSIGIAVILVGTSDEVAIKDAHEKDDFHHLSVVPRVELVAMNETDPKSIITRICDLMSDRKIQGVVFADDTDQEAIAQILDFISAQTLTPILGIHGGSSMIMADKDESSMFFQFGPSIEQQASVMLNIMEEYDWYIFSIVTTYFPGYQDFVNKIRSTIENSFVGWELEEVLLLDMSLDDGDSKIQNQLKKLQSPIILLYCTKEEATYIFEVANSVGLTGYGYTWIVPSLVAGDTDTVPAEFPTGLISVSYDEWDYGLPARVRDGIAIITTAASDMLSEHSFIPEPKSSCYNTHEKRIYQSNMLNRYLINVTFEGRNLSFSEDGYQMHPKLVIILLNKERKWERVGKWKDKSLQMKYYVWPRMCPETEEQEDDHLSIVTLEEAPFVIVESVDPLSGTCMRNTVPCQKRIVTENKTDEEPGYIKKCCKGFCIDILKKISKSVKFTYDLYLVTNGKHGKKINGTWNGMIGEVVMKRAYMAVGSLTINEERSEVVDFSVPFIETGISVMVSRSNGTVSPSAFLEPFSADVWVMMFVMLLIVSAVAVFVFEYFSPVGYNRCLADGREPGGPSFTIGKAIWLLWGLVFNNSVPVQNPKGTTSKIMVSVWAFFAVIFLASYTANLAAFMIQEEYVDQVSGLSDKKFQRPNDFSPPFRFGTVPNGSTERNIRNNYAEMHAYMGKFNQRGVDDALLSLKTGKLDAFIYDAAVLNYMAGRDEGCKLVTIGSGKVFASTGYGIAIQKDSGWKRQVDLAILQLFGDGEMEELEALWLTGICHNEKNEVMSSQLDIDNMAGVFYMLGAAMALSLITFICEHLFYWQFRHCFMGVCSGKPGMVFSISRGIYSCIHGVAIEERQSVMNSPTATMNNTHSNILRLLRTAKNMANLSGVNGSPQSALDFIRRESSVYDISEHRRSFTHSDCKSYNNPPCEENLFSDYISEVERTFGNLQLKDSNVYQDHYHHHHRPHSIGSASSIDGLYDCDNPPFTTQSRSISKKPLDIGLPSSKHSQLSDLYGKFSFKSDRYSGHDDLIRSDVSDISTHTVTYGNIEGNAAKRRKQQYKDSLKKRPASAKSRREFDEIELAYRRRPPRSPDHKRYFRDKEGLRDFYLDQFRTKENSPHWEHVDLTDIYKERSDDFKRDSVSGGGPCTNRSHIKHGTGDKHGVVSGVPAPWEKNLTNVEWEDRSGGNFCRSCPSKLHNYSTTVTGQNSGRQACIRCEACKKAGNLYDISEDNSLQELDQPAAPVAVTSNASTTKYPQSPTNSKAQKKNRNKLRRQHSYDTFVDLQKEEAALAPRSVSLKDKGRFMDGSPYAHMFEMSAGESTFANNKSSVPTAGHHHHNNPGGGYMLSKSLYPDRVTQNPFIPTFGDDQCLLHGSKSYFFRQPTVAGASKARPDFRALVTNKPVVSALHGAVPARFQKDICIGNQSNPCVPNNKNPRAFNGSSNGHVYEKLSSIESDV

As a reminder, the IC50 is the concentration that gives 50% inhibition. High values mean lower potency, low ones higher potency. For `Oc1ccc(C(O)CN2C[C@@H]3C[C@@](O)(Cc4ccc(F)cc4)C[C@@H]3C2)cc1` (mixture of isomers) [Example 135, rac-(3aR,5r,6aS)-5-(4-fluorobenzyl)-2-(2-hydroxy-2-(4-hy-droxyphenyl)ethyl)octa-hydrocyclopenta[c]pyrrol-5-ol], inhibition under setting [1] was half-maximal at 0.0271 µM (IC50).

Regarding `CS(=O)(=O)Nc1ccc(C(O)CN2C[C@@H]3C[C@@](O)(Cc4ccccc4)C[C@@H]3C2)nc1` (mixture of isomers) [Example 236, rac-N-(6-(2-((3aR,5r,6aS)-5-benzyl-5-hydroxyhexahydrocyclo-penta[c]pyrrol-2(1H)-yl)-1-hydroxyethyl)pyridin-3-yl)methanesulfonamide], under setting [1], inhibition was half-maximal at 0.114 µM (IC50).

`COc1ccc(NC(=O)N2C[C@@H]3C[C@@](O)(c4cccc(OC)c4)C[C@@H]3C2)cc1` [Example 17, 5-hydroxy-5-(3-methoxyphenyl)-N-(4-methoxyphenyl)-octahydrocyclopenta[c] pyrrole-2-carboxamide] registered an IC50 under setting [2] of over 10 µM.

`CC(C(=O)c1ccc(O)cc1)N1C[C@@H]2C[C@@](O)(Cc3ccccc3)C[C@@H]2C1` (mixture of isomers) [Example 293, rac-2-((3aR,5r,6aS)-5-benzyl-5-hydroxyhexahydrocyclo-penta[c]pyrrol-2(1H)-yl)-1-(4-hydroxyphenyl)propan-1-one] registered an IC50 under setting [1] of 0.1 µM.

For the molecule `Oc1ccc(C(O)CN2C[C@@H]3C[C@@](O)(Cc4ccccc4F)C[C@@H]3C2)nc1` (mixture of isomers) [Example 228, rac-5-(2-fluorobenzyl)-2-(2-hydroxy-2-(5-hydroxypyridin-2-yl)ethyl)octahydrocyclo-penta[c]pyrrol-5-olyl)ethanone], the IC50 is, setting by setting: under setting [2], under 0.1 µM; under setting [1], 0.0409 µM.

As to `COc1cccc(NC(=O)N2C[C@@H]3C[C@@](O)(c4ccc(C(C)(C)C)cc4)C[C@@H]3C2)c1` [Example 51], the IC50 is, setting by setting: under setting [2], over 10 µM; under setting [1], at least 10 µM.

Consider `Oc1ccc(C(O)CN2C[C@@H]3C[C@@](O)(c4ccccc4)C[C@@H]3C2)cc1` (mixture of isomers) [Example 67, rac-2-[2-hydroxy-2-(4-hydroxyphenyl)ethyl]-5-phenyl-octahydrocyclopenta[c] pyrrol-5-ol], for which the IC50 runs as follows: under setting [2], over 10 µM; under setting [1], at least 10 µM.

Take `Oc1ccc(C(O)CN2C[C@H]3CN(Cc4ccccc4)C[C@H]3C2)cc1` (mixture of isomers) [Example 327, rac-4-(2-(5-benzylhexahydropyrrolo [3,4-c]pyrrol-2(1H)-yl)-1-hydroxyethyl)phenol]: the IC50 runs as follows: under setting [2], 0.1 to 1 µM; under setting [1], 0.139 µM.

With `O=C(Nc1cccnc1)N1C[C@@H]2C[C@@](O)(c3ccc(F)cc3)C[C@@H]2C1` [Example 41], the IC50 reads like this: under setting [2], over 10 µM; under setting [1], at least 10 µM.

As to `Oc1c(F)cc(C(O)CN2C[C@@H]3C[C@@](O)(Cc4ccccc4)C[C@@H]3C2)cc1F` (mixture of isomers) [Example 160, rac-(3aR,5r,6aS)-5-benzyl-2-(2-(3,5-difluoro-4-hydroxyphenyl)-2-hydroxyethyl)octahydro-cyclopenta[c]pyrrol-5-ol], half-maximal inhibition under setting [1] (IC50) was put at 0.0981 µM. This lies in the double-digit nanomolar range.

The molecule `CC(C)(O)c1ccc(C(O)CN2C[C@@H]3C[C@@](O)(Cc4ccccc4)C[C@@H]3C2)cc1` (mixture of isomers) [Example 139, rac-(3aR,5r,6aS)-5-benzyl-2-(2-hydroxy-2-(4-(2-hydroxypropan-2-yl)phenyl)ethyl)octahydro-cyclopenta[c]pyrrol-5-ol] registered an IC50 under setting [2] of over 10 µM and an IC50 under setting [1] of at least 10 µM.

Turning to `O=C1Cc2cc(C(O)CN3C[C@@H]4C[C@@](O)(Cc5ccccc5)C[C@@H]4C3)ccc2N1` (mixture of isomers) [Example 152, rac-5-(2-((3aR,5r,6aS)-5-benzyl-5-hydroxyhexahydrocyclo-penta[c]pyrrol-2(1H)-yl)-1-hydroxyethyl)indolin-2-one], under setting [1], half-maximal inhibition (IC50) required 0.143 µM.

As to `COc1cccc([C@]2(O)C[C@H]3CN(C(=O)Nc4ccc(C)cc4C)C[C@H]3C2)c1` [Example 49], the IC50 is over 10 µM under setting [2] and at least 10 µM under setting [1].

As to `Oc1ccc(C(O)CN2C[C@@H]3C[C@@](O)(Cc4ccccc4)C[C@@H]3C2)cn1` (mixture of isomers) [Example 181, rac-5-{2-[(3aR,5R,6aS)-5-benzyl-5-hydroxy-octahydrocyclopenta[c]pyrrol-2-yl]-1-hydroxyethyl}pyridin-2-ol], the IC50 reads like this: under setting [2], over 10 µM; under setting [1], at least 10 µM.

Turning to `CC(C(O)c1ccc(O)cc1)N1C[C@@H]2C[C@@](O)(c3ccccc3)C[C@@H]2C1` (mixture of isomers) [Example 91, rac-2-(1-hydroxy-1-(4-hydroxyphenyl)propan-2-yl)-5-phenyloctahydrocyclo-penta[c]pyrrol-5-ol], the IC50 is, setting by setting: under setting [2], over 10 µM; under setting [1], at least 10 µM.

On to `COc1ccc(C(O)CN2C[C@@H]3C[C@@](O)(c4ccccc4)C[C@@H]3C2)cc1` (mixture of isomers) [Example 66, rac-2-[2-hydroxy-2-(4-methoxyphenyl)ethyl]-5-phenyl-octahydrocyclopenta[c] pyrrol-5-ol], for which the IC50 runs as follows: under setting [2], over 10 µM; under setting [1], at least 10 µM.

On to `OC(CN1C[C@@H]2C[C@@](O)(c3ccc(F)cc3)C[C@@H]2C1)c1cccc(C(F)(F)F)c1` (mixture of isomers) [Example 75, rac-5-(4-fluorophenyl)-2-{2-hydroxy-2-[3-(trifluoromethyl)phenyl]ethyl}-octahydrocyclopenta[c] pyrrol-5-ol], for which the IC50 reads like this: under setting [2], over 10 µM; under setting [1], at least 10 µM.

Consider `COc1cccc(NC(=O)N2C[C@@H]3C[C@@](O)(c4ccccc4C)C[C@@H]3C2)c1`, for which the IC50 runs as follows: under setting [2], over 10 µM; under setting [1], at least 10 µM.

`Oc1ccc(C(O)CN2C[C@@H]3C[C@@](O)(Cc4ccc(F)c(F)c4)C[C@@H]3C2)cc1` (mixture of isomers) [Example 253, rac-(3aR,5r,6aS)-5-(3,4-difluorobenzyl)-2-(2-hydroxy-2-(4-hydroxyphenyl)ethyl) octahydrocyclopenta[c] pyrrol-5-ol] gave an IC50 under setting [1] of 0.0315 µM. In other words, the double-digit nanomolar range.

`Oc1ccc(C(O)CN2C[C@@H]3C[C@@](O)(Cc4ccncc4)C[C@@H]3C2)cc1` (mixture of isomers) [Example 227, rac-(3aR,5r,6aS)-2-(2-hydroxy-2-(4-hydroxyphenyl)ethyl)-5-(pyridin-4-ylmethyl)octahydrocyclo-penta[c]pyrrol-5-ol] yielded an IC50 under setting [1] of 3.15 µM. This IC50 lies about 100-fold higher than the previous one.

Turning to `Cc1ccccc1[C@]1(O)C[C@H]2CN(C(C)C(=O)c3ccc(O)cc3)C[C@H]2C1` (mixture of isomers) [Example 94, rac-2-[5-hydroxy-5-(2-methylphenyl)-octahydrocyclopenta[c]pyrrol-2-yl]-1-(4-hydroxyphenyl)propan-1-one], the IC50 is over 10 µM under setting [2] and at least 10 µM under setting [1].

In the case of `CC(C)(C)c1ccc([C@]2(O)C[C@H]3CN(CC(O)c4cccc(C(F)(F)F)c4)C[C@H]3C2)cc1` (mixture of isomers) [Example 70, rac-5-(4-(tert-butyl)phenyl)-2-(2-hydroxy-2-(3-(trifluoromethyl)phenyl)ethyl)octahydrocyclo-penta[c]pyrrol-5-ol], the IC50 was over 10 µM under setting [2] and at least 10 µM under setting [1].

As to `OC(CN1C[C@H]2C[C@@H](c3ccccc3)C[C@H]2C1)c1cccc(C(F)(F)F)c1` (mixture of isomers) [Example 116, rac-2-(5-phenylhexahydrocyclo-penta[c]pyrrol-2(1H)-yl)-1-(3-(trifluoromethyl)phenyl) ethanol], the IC50 was over 10 µM under setting [2] and at least 10 µM under setting [1].

As to `COc1cccc([C@]2(O)C[C@H]3CN(C(C)C(O)c4ccc(O)cc4)C[C@H]3C2)c1` (mixture of isomers) [Example 78, rac-2-(1-hydroxy-1-(4-hydroxyphenyl)propan-2-yl)-5-(3-methoxy-phenyl)octahydro-cyclopenta[c]pyrrol-5-ol], the IC50 by setting is: under setting [2], over 10 µM; under setting [1], at least 10 µM.

On to `CC(C)(O)c1ccc(C(=O)CN2C[C@@H]3C[C@@](O)(c4ccccc4)C[C@@H]3C2)cc1` [Example 68, 2-(5-hydroxy-5-phenylhexahydrocyclo-penta[c]pyrrol-2(1H)-yl)-2-(4-(2-hydroxypropan-2-yl)phenyl)ethanone], for which the IC50 under setting [2] was over 10 µM.

`CC(C)(C)C(=O)Nc1ccc(C(O)CN2C[C@@H]3C[C@@](O)(Cc4ccccc4)C[C@@H]3C2)cn1` (mixture of isomers) [Example 286, rac-N-(5-(2-(5-benzyl-5-hydroxyhexahydrocyclo-penta[c]pyrrol-2(1H)-yl)-1-hydroxyethyl)pyridin-2-yl)pivalamide] gave a 50% inhibitory concentration (IC50) under setting [2] of over 10 µM and an IC50 under setting [1] of at least 10 µM.

As to `Cc1ccc(C[C@]2(O)C[C@H]3CN(CC(O)c4ccc(O)cc4)C[C@H]3C2)cc1` (mixture of isomers) [Example 182, rac-(3aR,5R,6aS)-2-[2-hydroxy-2-(4-hydroxyphenyl)ethyl]-5-[(4-methylphenyl)methyl]-octahydrocyclopenta[c] pyrrol-5-ol], inhibition under setting [1] was half-maximal at 0.0415 µM (IC50).

Take `Cc1cc(C)cc(C[C@]2(O)C[C@H]3CN(CC(O)c4ccc(O)cc4)C[C@H]3C2)c1` (mixture of isomers) [Example 213, rac-(3aR,5R,6aS)-5-[(3,5-dimethylphenyl)methyl]-2-[2-hydroxy-2-(4-hydroxyphenyl)ethyl]-octahydrocyclopenta[c] pyrrol-5-ol]: half-maximal inhibition under setting [1] (IC50) required 0.566 µM. This IC50 is about 14-fold higher than that of the molecule before.

In the case of `CC(C(=O)c1ccc(O)cc1)N1C[C@@H]2C[C@@](O)(CCc3ccccc3)C[C@@H]2C1` (mixture of isomers) [Example 319, rac-2-(5-hydroxy-5-phenethylhexa-hydrocyclo-penta[c]pyrrol-2(1H)-yl)-1-(4-hydroxyphenyl)propan-1-one], the IC50 under setting [1] worked out at 0.497 µM. The IC50 values of the last two molecules are within 1.5-fold of each other.

In turn, `CS(=O)(=O)Nc1ccc(C(O)CN2C[C@@H]3C[C@@](O)(Cc4ccccc4)C[C@@H]3C2)cc1` (mixture of isomers) [Example 150, rac-N-(4-(2-((3aR,5r,6aS)-5-benzyl-5-hydroxyhexahydrocyclo-penta[c]pyrrol-2(1H)-yl)-1-hydroxy-ethyl)phenyl)meth-anesulfonamide] came in with an IC50 under setting [1] of 0.047 µM.

`O=C(Nc1cccc(C(F)(F)F)c1)N1C[C@@H]2C[C@@](O)(c3ccc(F)cc3)C[C@@H]2C1` [Example 38]: the IC50 is, setting by setting: under setting [2], over 10 µM; under setting [1], at least 10 µM.
